According to patent US20080228408A1, “Method for Determining the State of an Ensemble of Cells and System for the Implementation of the Method” (priority 2005, published 2008):

Tested on: neuronal cells
Test: Toxicogenomic DNA chip test: gene expression level (RES) in cells exposed to the compound compared to unexposed cells
Format: cell-based
Conditions: Neuron
Text: One wishes to carry out the evaluation of the toxicity of a collection of (15) pesticides using a toxicogenomic analysis of the impact of these pesticides on neuronal cells, according to 4 modes of exposure of the cells to the compounds:
DNA chips built specifically to test the expression level of the 51 genes in cells under study, each chip being configured only for one gene in our case, each chip allowing to carry out for each gene a redundant number of measurements (16) in order to stabilize the levels of expression by analysing the results on average. The spots on the chips are numbered sp1 to sp16.
An automated device D5 allowing, on signal of execution of the C2 test, to take a E1 sample of the cell culture C (non exposed) and a E2 sample of the cell culture C exposed to the compound by the device described previously under the conditions specified with the configuration, then to use the D1 device to select a DNA chip corresponding to the gene specified at the time of the configuration, and to put the samples E1 and E2 thus obtained in the presence of the aforementioned DNA chip according to the methods described in the D1 device,
The result of a test, RES, transmitted by the Resource Unit to the PC, is a raw numerical value which indicates the expression level of the gene indicated in the configuration, for the cell exposed to the compound under the conditions of concentration and exposure duration specified in the configuration, compared to the expression level of the same gene in an unexposed cell of identical nature.
The following results are based on 3 evaluations, each using a different strategy, the target cells being neuronal cells, the mode of exposure being Expo11.
The results presented in table 2 show the values obtained in (052) for the evaluation of Paraquat according to the 4 modes Expo11, Expo12, Expo21, Expo22 carried out. The missing data are not relevant (ranging between 0.5 and 2 strictly).

C[n+]1ccc(-c2cc[n+](C)cc2)cc1 [Paraquat]
A2M gene expression level RES (exposed/unexposed cells) (C1 (IC50), 24 h (Expo11)): 0.43 | AITCH gene expression level RES (exposed/unexposed cells) (C1 (IC50), 24 h (Expo11)): 0.13 | ALB gene expression level RES (exposed/unexposed cells) (C1 (IC50), 24 h (Expo11)): 0.57 | APAF1 gene expression level RES (exposed/unexposed cells) (C1 (IC50), 24 h (Expo11)): 0.47 | AR gene expression level RES (exposed/unexposed cells) (C1 (IC50), 24 h (Expo11)): 0.39 | ATF6 gene expression level RES (exposed/unexposed cells) (C1 (IC50), 24 h (Expo11)): 0.48 | ATM gene expression level RES (exposed/unexposed cells) (C1 (IC50), 24 h (Expo11)): 0.42 | BAX gene expression level RES (exposed/unexposed cells) (C1 (IC50), 24 h (Expo11)): 0.40 | BCL2 gene expression level RES (exposed/unexposed cells) (C1 (IC50), 24 h (Expo11)): 0.44 | BZRP gene expression level RES (exposed/unexposed cells) (C1 (IC50), 24 h (Expo11)): 0.53 | C12ORF8 gene expression level RES (exposed/unexposed cells) (C1 (IC50), 24 h (Expo11)): 0.57 | CALR gene expression level RES (exposed/unexposed cells) (C1 (IC50), 24 h (Expo11)): 0.52 | CDC25C gene expression level RES (exposed/unexposed cells) (C1 (IC50), 24 h (Expo11)): 0.62 | CDK4 gene expression level RES (exposed/unexposed cells) (C1 (IC50), 24 h (Expo11)): 0.59 | CDKN1A gene expression level RES (exposed/unexposed cells) (C1 (IC50), 24 h (Expo11)): 0.46 | CREB1 gene expression level RES (exposed/unexposed cells) (C1 (IC50), 24 h (Expo11)): 0.64 | CTSB gene expression level RES (exposed/unexposed cells) (C1 (IC50), 24 h (Expo11)): 0.51 | CTSD gene expression level RES (exposed/unexposed cells) (C1 (IC50), 24 h (Expo11)): 0.39 | EGF gene expression level RES (exposed/unexposed cells) (C1 (IC50), 24 h (Expo11)): 0.47 | EPHX1 gene expression level RES (exposed/unexposed cells) (C1 (IC50), 24 h (Expo11)): 0.45 | FOS gene expression level RES (exposed/unexposed cells) (C1 (IC50), 24 h (Expo11)): 0.43 | GADD45A gene expression level RES (exposed/unexposed cells) (C1 (IC50), 24 h (Expo11)): 0.54 | GPX1 gene expression level RES (exposed/unexposed cells) (C1 (IC50), 24 h (Expo11)): 0.49 | GSS gene expression level RES (exposed/unexposed cells) (C1 (IC50), 24 h (Expo11)): 0.54 | GSTM3 gene expression level RES (exposed/unexposed cells) (C1 (IC50), 24 h (Expo11)): 0.71 | HOXD1 gene expression level RES (exposed/unexposed cells) (C1 (IC50), 24 h (Expo11)): 0.44 | HSPA5 gene expression level RES (exposed/unexposed cells) (C1 (IC50), 24 h (Expo11)): 0.55 | HSPA9B gene expression level RES (exposed/unexposed cells) (C1 (IC50), 24 h (Expo11)): 0.58 | JUN gene expression level RES (exposed/unexposed cells) (C1 (IC50), 24 h (Expo11)): 0.61 | MDM2 gene expression level RES (exposed/unexposed cells) (C1 (IC50), 24 h (Expo11)): 0.37 | NFKB1 gene expression level RES (exposed/unexposed cells) (C1 (IC50), 24 h (Expo11)): 0.54 | NOS2A gene expression level RES (exposed/unexposed cells) (C1 (IC50), 24 h (Expo11)): 0.54 | PARA gene expression level RES (exposed/unexposed cells) (C1 (IC50), 24 h (Expo11)): 0.38 | PGR gene expression level RES (exposed/unexposed cells) (C1 (IC50), 24 h (Expo11)): 0.42 | RAD50 gene expression level RES (exposed/unexposed cells) (C1 (IC50), 24 h (Expo11)): 0.63 | RAD51 gene expression level RES (exposed/unexposed cells) (C1 (IC50), 24 h (Expo11)): 0.49 | SOD1 gene expression level RES (exposed/unexposed cells) (C1 (IC50), 24 h (Expo11)): 0.76 | TF1 gene expression level RES (exposed/unexposed cells) (C1 (IC50), 24 h (Expo11)): 0.68 | THBS1 gene expression level RES (exposed/unexposed cells) (C1 (IC50), 24 h (Expo11)): 0.39 | TP53 gene expression level RES (exposed/unexposed cells) (C1 (IC50), 24 h (Expo11)): 0.54 | TUBA1 gene expression level RES (exposed/unexposed cells) (C1 (IC50), 24 h (Expo11)): 0.38 | XBP1 gene expression level RES (exposed/unexposed cells) (C1 (IC50), 24 h (Expo11)): 0.50 | A2M gene expression level RES (exposed/unexposed cells) (C1 (IC50), 48 h (Expo12)): 0.03 | AITCH gene expression level RES (exposed/unexposed cells) (C1 (IC50), 48 h (Expo12)): 0.03 | ALB gene expression level RES (exposed/unexposed cells) (C1 (IC50), 48 h (Expo12)): 0.01 | APAF1 gene expression level RES (exposed/unexposed cells) (C1 (IC50), 48 h (Expo12)): 0.05 | AR gene expression level RES (exposed/unexposed cells) (C1 (IC50), 48 h (Expo12)): 0.04 | ATF6 gene expression level RES (exposed/unexposed cells) (C1 (IC50), 48 h (Expo12)): 0.05 | ATM gene expression level RES (exposed/unexposed cells) (C1 (IC50), 48 h (Expo12)): 0.04 | BAX gene expression level RES (exposed/unexposed cells) (C1 (IC50), 48 h (Expo12)): 0.05 | BCL2 gene expression level RES (exposed/unexposed cells) (C1 (IC50), 48 h (Expo12)): 0.04 | BZRP gene expression level RES (exposed/unexposed cells) (C1 (IC50), 48 h (Expo12)): 0.04 | C12ORF8 gene expression level RES (exposed/unexposed cells) (C1 (IC50), 48 h (Expo12)): 0.05 | CALR gene expression level RES (exposed/unexposed cells) (C1 (IC50), 48 h (Expo12)): 0.04 | CDC25C gene expression level RES (exposed/unexposed cells) (C1 (IC50), 48 h (Expo12)): 0.04 | CDK4 gene expression level RES (exposed/unexposed cells) (C1 (IC50), 48 h (Expo12)): 0.06 | CDKN1A gene expression level RES (exposed/unexposed cells) (C1 (IC50), 48 h (Expo12)): 0.02 | CREB1 gene expression level RES (exposed/unexposed cells) (C1 (IC50), 48 h (Expo12)): 0.03 | CTSB gene expression level RES (exposed/unexposed cells) (C1 (IC50), 48 h (Expo12)): 0.05 | CTSD gene expression level RES (exposed/unexposed cells) (C1 (IC50), 48 h (Expo12)): 0.03 | EGF gene expression level RES (exposed/unexposed cells) (C1 (IC50), 48 h (Expo12)): 0.04 | EPHX1 gene expression level RES (exposed/unexposed cells) (C1 (IC50), 48 h (Expo12)): 0.07 | FOS gene expression level RES (exposed/unexposed cells) (C1 (IC50), 48 h (Expo12)): 0.04 | GADD45A gene expression level RES (exposed/unexposed cells) (C1 (IC50), 48 h (Expo12)): 0.04 | GPX1 gene expression level RES (exposed/unexposed cells) (C1 (IC50), 48 h (Expo12)): 0.02 | GSS gene expression level RES (exposed/unexposed cells) (C1 (IC50), 48 h (Expo12)): 0.04 | GSTM3 gene expression level RES (exposed/unexposed cells) (C1 (IC50), 48 h (Expo12)): 0.06 | HOXD1 gene expression level RES (exposed/unexposed cells) (C1 (IC50), 48 h (Expo12)): 0.03 | HSPA5 gene expression level RES (exposed/unexposed cells) (C1 (IC50), 48 h (Expo12)): 0.06 | HSPA9B gene expression level RES (exposed/unexposed cells) (C1 (IC50), 48 h (Expo12)): 0.05 | JUN gene expression level RES (exposed/unexposed cells) (C1 (IC50), 48 h (Expo12)): 0.05 | MDM2 gene expression level RES (exposed/unexposed cells) (C1 (IC50), 48 h (Expo12)): 0.05 | NFKB1 gene expression level RES (exposed/unexposed cells) (C1 (IC50), 48 h (Expo12)): 0.04 | NOS2A gene expression level RES (exposed/unexposed cells) (C1 (IC50), 48 h (Expo12)): 0.04 | PARA gene expression level RES (exposed/unexposed cells) (C1 (IC50), 48 h (Expo12)): 0.04 | PGR gene expression level RES (exposed/unexposed cells) (C1 (IC50), 48 h (Expo12)): 0.04 | RAD50 gene expression level RES (exposed/unexposed cells) (C1 (IC50), 48 h (Expo12)): 0.06 | RAD51 gene expression level RES (exposed/unexposed cells) (C1 (IC50), 48 h (Expo12)): 0.05 | SOD1 gene expression level RES (exposed/unexposed cells) (C1 (IC50), 48 h (Expo12)): 0.05 | TF1 gene expression level RES (exposed/unexposed cells) (C1 (IC50), 48 h (Expo12)): 0.05 | THBS1 gene expression level RES (exposed/unexposed cells) (C1 (IC50), 48 h (Expo12)): 0.05 | TP53 gene expression level RES (exposed/unexposed cells) (C1 (IC50), 48 h (Expo12)): 0.05 | TUBA1 gene expression level RES (exposed/unexposed cells) (C1 (IC50), 48 h (Expo12)): 0.04 | XBP1 gene expression level RES (exposed/unexposed cells) (C1 (IC50), 48 h (Expo12)): 0.05 | A2M gene expression level RES (exposed/unexposed cells) (C2 (IC50/10), 24 h (Expo21)): 0.14 | AITCH gene expression level RES (exposed/unexposed cells) (C2 (IC50/10), 24 h (Expo21)): 0.08
